Measurements reported in patent US20260365628A1, “SUBSTITUTED 3,4-DIHYDROQUINOLINONE INHIBITORS OF TSHR” (Septerna, Inc., priority 2022, published 2026).

Biological target: T1, hTSHR (Homo sapiens, UniProt P16473)
T1 construct: expressed in transfected cells
Assay: hTSHR TR-FRET cAMP Assay (inhibition of M22-stimulated cAMP production)
Format: cell-based
Conditions: Expi293F Inducible cells stably expressing hTSHR; cAMP HTRF; stimulated with EC80 of anti-TSHR antibody M22; 15 min compound preincubation, 30 min at 37° C.; read-out: Activity (IC50 bins)
Summary of the method: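 Readout was a cAMP HTRF ratio of 655/620 nm after lysis, scaled between the EC80 M22 signal (0% inhibition) and no-agonist vehicle (100%). Frozen induced Expi293F-hTSHR cells saw test compounds (0.5% DMSO) for 15 min at 37 °C before 30 min of M22 stimulation at EC80.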

T1 sequence (P16473 21-764): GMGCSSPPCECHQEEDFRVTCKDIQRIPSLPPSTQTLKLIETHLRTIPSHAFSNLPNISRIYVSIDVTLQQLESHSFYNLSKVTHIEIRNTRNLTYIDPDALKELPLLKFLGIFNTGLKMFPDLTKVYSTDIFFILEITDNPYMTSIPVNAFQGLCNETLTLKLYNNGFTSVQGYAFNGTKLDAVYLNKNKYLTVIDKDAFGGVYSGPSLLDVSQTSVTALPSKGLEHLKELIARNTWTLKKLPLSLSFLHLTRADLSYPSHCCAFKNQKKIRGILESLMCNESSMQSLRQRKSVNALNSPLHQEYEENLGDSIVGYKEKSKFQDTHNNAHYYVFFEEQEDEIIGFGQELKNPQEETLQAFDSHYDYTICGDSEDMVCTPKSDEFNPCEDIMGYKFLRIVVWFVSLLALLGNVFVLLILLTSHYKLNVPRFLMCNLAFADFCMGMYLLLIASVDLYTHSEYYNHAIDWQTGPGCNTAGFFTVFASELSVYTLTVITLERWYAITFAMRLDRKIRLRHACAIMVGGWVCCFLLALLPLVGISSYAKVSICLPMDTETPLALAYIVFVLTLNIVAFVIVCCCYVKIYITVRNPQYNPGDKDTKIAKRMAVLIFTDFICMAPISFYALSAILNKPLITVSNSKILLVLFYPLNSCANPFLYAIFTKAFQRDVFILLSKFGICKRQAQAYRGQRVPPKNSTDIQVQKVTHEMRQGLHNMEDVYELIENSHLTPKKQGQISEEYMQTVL

`C[C@H]1Oc2cc(NC(=O)NC3CC4CC4C3)ccc2N(Cc2cccc(C(F)(F)F)n2)C1=O` (stereo partly drawn) [Example 230, 1-(bicyclo[3.1.0]hexan-3-yl)-3-((R)-2-methyl-3-oxo-4-((6-(trifluoromethyl)pyridin-2-yl)methyl)-3,4-dihydro-2H-benzo[b][1,4]oxazin-7-yl)urea] and `C[C@H]1Oc2cc(NC(=O)NC(C)(C)C)ccc2N(Cc2cc(C(F)(F)F)ccn2)C1=O` [Example 162, (R)-1-(tert-butyl)-3-(2-methyl-3-oxo-4-((4-(trifluoro-methyl)pyridin-2-yl)methyl)-3,4-dihydro-2H-benzo [b][1,4]oxazin-7-yl)urea] fall in the same range of IC50: 100 to 1000 nM for the first, 100 to 1000 nM for the second.

First: C[C@H]1Oc2cc(NC(=O)NC(C)(C)C)ccc2N(Cc2cc(F)ccc2F)C1=O [Example 177, (R)-1-(tert-butyl)-3-(4-(2,5-difluoro-benzyl)-2-methyl-3-oxo-3,4-dihydro-2H-benzo [b][1,4]oxazin-7-yl)urea]
Second: C[C@@H]1Oc2cc(NC(=O)NC(C)(C)C)ccc2N(Cc2cc(C(F)(F)F)ccc2C#N)C1=O [Example 84, (S)-1-(tert-butyl)-3-(4-(2-cyano-5-(trifluoromethyl)benzyl)-2-methyl-3-oxo-3,4-dihydro-2H-benzo[b][1,4]oxazin-7-yl)urea]
The IC50 of the first is lower: less than 100 nM for the first, 100 to 1000 nM for the second.

First: CC(c1cc(C(O)C(F)(F)F)ccc1F)n1c(=O)cnc2cc(NC(=O)NC(C)(C)C)ccc21 (stereo not drawn) [Example 375, 1-(tert-butyl)-3-(1-(1-(2-fluoro-5-(2,2,2-trifluoro-1-hydroxyethyl)phenyl)ethyl)-2-oxo-1,2-dihydroquinoxalin-6-yl)urea]
Second: C[C@@H](c1cccc([C@H](O)C(F)(F)F)c1)n1c(=O)cnc2cc(NC(=O)NC(C)(C)C)ccc21 [Example 156, 1-(tert-butyl)-3-(2-oxo-1-((S)-1-(3-((R)-2,2,2-trifluoro-1-hydroxyethyl)phe-nyl)ethyl)-1,2-dihydroquinoxalin-6-yl)urea]
The IC50 of the first is higher: greater than 1000 nM for the first, 100 to 1000 nM for the second. The second is the more potent here.

First: Cc1nc2cc(NC(=O)NC(C)(C)C)ccc2n(Cc2ccccc2)c1=O [Example 272, 1-(1-benzyl-3-methyl-2-oxo-1,2-dihydroquinoxalin-6-yl)-3-(tert-butyl)urea]
Second: Cc1nc2cc(NC(=O)NC(C)(C)C)ccc2n(Cc2cccc(Cl)c2)c1=O [Example 273, 3-tert-butyl-1-{1-[(3-chlorophenyl)methyl]-3-methyl-2-oxoquinoxalin-6-yl}urea]
The IC50 of the first is higher: greater than 1000 nM for the first, 100 to 1000 nM for the second.

First: C[C@H]1Oc2cc(NC(=O)NC3CCC(F)(F)CC3)ccc2N([C@@H](C)c2ccccc2)C1=O [Example 258, 1-(4,4-difluoro-cyclohexyl)-3-((R)-2-methyl-3-oxo-4-((S)-1-phenyl-ethyl)-3,4-dihydro-2H-benzo[b][1,4]oxazin-7-yl)urea]
Second: C[C@H]1Oc2cc(NC(=O)NC3(C)CCC3)ccc2N([C@@H](C)c2ccccc2)C1=O [Example 255, 1-((R)-2-methyl-3-oxo-4-((S)-1-phenylethyl)-3,4-dihydro-2H-benzo[b][1,4]oxazin-7-yl)-3-(1-methylcyclobutyl)urea]
The IC50 of the first is higher: 100 to 1000 nM for the first, less than 100 nM for the second. The second is the more potent here.

`C[C@H](c1cccc(Cl)c1)N1C(=O)N(C)Cc2cc(NC(=O)NC(C)(C)C)ccc21` [Example 52] and `C[C@H](c1ccccc1)N1C(=O)N(C)Cc2cc(NC(=O)NC(C)(C)C)ccc21` [Example 45A, 3-tert-butyl-1-{3-methyl-2-oxo-1-[(1R)-1-phenylethyl]-4H-quinazolin-6-yl}urea] cannot be ordered by IC50: greater than 1000 nM for the first, greater than 1000 nM for the second.

First: CC(C)(C)NC(=O)Nc1ccc2c(c1)CCC(=O)N2Cc1ccccn1 [Example 2, 1-(tert-butyl)-3-(2-oxo-1-(pyridin-2-ylmethyl)-1,2,3,4-tetrahydroquinolin-6-yl)urea]
Second: CC(C)(CCO)NC(=O)Nc1ccc2c(c1)CCC(=O)N2Cc1ccccc1 [Example 16, 1-(1-benzyl-2-oxo-1,2,3,4-tetrahydroquinolin-6-yl)-3-(4-hydroxy-2-methylbutan-2-yl)urea]
The IC50 of the first is higher: greater than 1000 nM for the first, 100 to 1000 nM for the second. The second is the more potent here.

First: C[C@@H](c1cc(Cl)cc(Cl)c1)n1c(=O)cnc2cc(NC(=O)NC(C)(C)C)ccc21 [Example 101, (S)-1-(tert-butyl)-3-(1-(1-(3,5-dichlorophenyl)ethyl)-2-oxo-1,2-dihydroquinoxalin-6-yl)urea]
Second: C[C@@H](c1ccccc1)n1c(=O)cnc2cc(NC(=O)NC(C)(C)C)c(CO)cc21 [Example 360, (S)-1-(tert-butyl)-3-(7-(hydroxymethyl)-2-oxo-1-(1-phenylethyl)-1,2-dihydroquinoxalin-6-yl)urea]
The IC50 of the first is lower: 100 to 1000 nM for the first, greater than 1000 nM for the second. The first is the more potent here.

`Cc1c(NC(=O)NC(C)(C)C)ccc2c1ncc(=O)n2[C@@H](C)c1cccc(OC(F)(F)F)c1` [Example 209, (S)-1-(tert-butyl)-3-(5-methyl-2-oxo-1-(1-(3-(trifluoromethoxy)phenyl)ethyl)-1,2-dihydroquinoxalin-6-yl)urea] and `C[C@@H](c1cccc(OC(F)(F)F)c1)n1c(=O)cnc2cc(NC(=O)NC3CCC3)ccc21` [Example 205, (S)-1-cyclobutyl-3-(2-oxo-1-(1-(3-(trifluoromethoxy)phenyl)ethyl)-1,2-dihydroquinoxalin-6-yl)urea] fall in the same range of IC50: 100 to 1000 nM for the first, 100 to 1000 nM for the second.

`CC(C)(C)NC(=O)Nc1ccc2c(c1)OCC(=O)N2Cc1cccc(C(F)(F)F)c1` [Example 50, 1-(tert-butyl)-3-(3-oxo-4-(3-(trifluoromethyl)benzyl)-3,4-dihydro-2H-benzo[b][1,4]oxazin-7-yl)urea] and `C[C@H]1Oc2cc(NC(=O)NC(C)(C)C)ccc2N(Cc2cccc(C(F)(F)F)c2)C1=O` [Example 81] cannot be ordered by IC50: less than 100 nM for the first, less than 100 nM for the second.

First: COc1cccc(CN2C(=O)[C@@H](C)Oc3cc(NC(=O)NC(C)(C)C)ccc32)c1 [Example 164, (R)-1-(tert-butyl)-3-(4-(3-methoxy-benzyl)-2-methyl-3-oxo-3,4-dihydro-2H-benzo [b][1,4]oxazin-7-yl)urea]
Second: CC[C@H]1Oc2cc(NC(=O)NC(C)(C)C)ccc2N(Cc2ccccc2)C1=O [Example 277, (R)-1-(4-benzyl-2-ethyl-3-oxo-3,4-dihydro-2H-benzo[b][1,4]oxazin-7-yl)-3-(tert-butyl)urea]
The IC50 of the first is lower: 100 to 1000 nM for the first, greater than 1000 nM for the second.

First: CC(C)(C)NC(=O)Nc1ccc2c(c1)C(C)(C)CC(=O)N2Cc1ccccc1 [Example 10, 1-(1-benzyl-4,4-dimethyl-2-oxo-1,2,3,4-tetrahydroquinolin-6-yl)-3-(tert-butyl)urea]
Second: CC(C)(C)NC(=O)Nc1ccc2c(c1)OCC(=O)N2Cc1ccccc1 [Example 7, 1-(4-benzyl-3-oxo-3,4-dihydro-2H-benzo[b][1,4]oxazin-7-yl)-3-(tert-butyl)urea]
The IC50 of the first is higher: greater than 1000 nM for the first, less than 100 nM for the second. The second is the more potent here.

First: C[C@H]1Oc2cc(NC(=O)NC(C)(C)C)ccc2N(Cc2nc(C(F)(F)F)cs2)C1=O [Example 168, (R)-1-(tert-butyl)-3-(2-methyl-3-oxo-4-((4-(trifluoro-methyl)thiazol-2-yl)methyl)-3,4-dihydro-2H-benzo [b][1,4]oxazin-7-yl)urea]
Second: C[C@@H](c1cccc(C(F)(F)F)c1)N1C(=O)COc2cc(NC(=O)NC(C)(C)C)ccc21 [Example 62, (S)-1-(tert-butyl)-3-(3-oxo-4-(1-(3-(trifluoromethyl)phenyl)ethyl)-3,4-dihydro-2H-benzo[b][1,4]oxazin-7-yl)urea]
The IC50 of the first is higher: 100 to 1000 nM for the first, less than 100 nM for the second. The second is the more potent here.

`C[C@H]1Oc2cc(NC(=O)N[C@H]3C[C@H](C(F)(F)F)C3)ccc2N([C@@H](C)c2cccc(OC(F)(F)F)c2)C1=O` [Example 324, 1-((R)-2-methyl-3-oxo-4-((S)-1-(3-(trifluoromethoxy)phenyl)ethyl)-3,4-dihydro-2H-benzo[b][1,4]oxazin-7-yl)-3-((1r,3R)-3-(trifluoromethyl)cyclobutyl)urea] and `C[C@@H](c1cccc(OC(F)(F)F)c1)n1c(=O)cnc2cc(NC(=O)NC3(C)CCCC3)ccc21` [Example 203, (S)-1-(1-methylcyclopentyl)-3-(2-oxo-1-(1-(3-(trifluoromethoxy)phenyl)ethyl)-1,2-dihydroquinoxalin-6-yl)urea] fall in the same range of IC50: 100 to 1000 nM for the first, 100 to 1000 nM for the second.

First: C[C@H](c1cccc(Cl)c1)N1C(=O)COc2cc(NC(=O)NC(C)(C)C)ccc21 [Example 36, (R)-1-(tert-butyl)-3-(4-(1-(3-chlorophenyl)ethyl)-3-oxo-3,4-dihydro-2H-benzo[b][1,4]oxazin-7-yl)urea]
Second: C[C@H](c1cccc(Cl)c1)N1C(=O)CCc2nc(NC(=O)NC(C)(C)C)ccc21 [Example 291, (R)-1-(tert-butyl)-3-(5-(1-(3-chlorophenyl)ethyl)-6-oxo-5,6,7,8-tetrahydro-1,5-naphthyridin-2-yl)urea]
The IC50 of the first is higher: greater than 1000 nM for the first, 100 to 1000 nM for the second. The second is the more potent here.

First: CC(C)(C)NC(=O)Nc1c(F)cc2c(c1F)CCC(=O)N2Cc1ccccc1 [Example 345, 1-(1-benzyl-5,7-difluoro-2-oxo-1,2,3,4-tetrahydroquinolin-6-yl)-3-(tert-butyl) urea]
Second: CC(C)(C)OC(=O)Nc1ccc2c(c1)CCC(=O)N2Cc1ccccc1 [Example 9, tert-butyl (1-benzyl-2-oxo-1,2,3,4-tetrahydroquinolin-6-yl)carbamate]
The IC50 of the first is higher: 100 to 1000 nM for the first, less than 100 nM for the second. The second is the more potent here.

First: CC(C)(C)NC(=O)Nc1ccc2c(c1)CCC(=O)N2Cc1cc(C(F)(F)F)ccc1C#N [Example 55, 3-tert-butyl-1-(1-{[2-cyano-5-(trifluoromethyl)phenyl]methyl}-2-oxo-3,4-dihydroquinolin-6-yl) urea]
Second: CC(C)(CF)NC(=O)Nc1ccc2c(c1)ncc(=O)n2Cc1ccccc1 [Example 195, 1-(1-benzyl-2-oxo-1,2-dihydroquinoxalin-6-yl)-3-(1-fluoro-2-methylpropan-2-yl)urea]
The IC50 of the first is lower: less than 100 nM for the first, greater than 1000 nM for the second.

First: CC1(C)CCN(C(=O)Nc2ccc3c(c2)ncc(=O)n3Cc2ccccc2)C1 [Example 194, N-(1-benzyl-2-oxo-1,2-dihydroquinoxalin-6-yl)-3,3-dimethylpyrrolidine-1-carboxamide]
Second: C[C@@H](c1cccc(Cl)c1)n1c(=O)cnc2cc(NC(=O)NC3(C)CCC3)ccc21 [Example 319, (S)-1-(1-(1-(3-chlorophenyl)ethyl)-2-oxo-1,2-dihydroquinoxalin-6-yl)-3-(1-methylcyclobutyl)urea]
The IC50 of the first is higher: greater than 1000 nM for the first, 100 to 1000 nM for the second. The second is the more potent here.
